In the NIST ThermoML archive (doi:10.1021/je7000182):

Assay: xn = mol fraction of the nth substance listed
Settings: for surface tension liquid-gas: Pendant drop shape; for mass density: 101 kPa, Liquid

CC(C)=O [acetone] + O
Settings	mass density [kg/m3]	surface tension liquid-gas [mN/m]
288.15 K, x1 = 0.0099	994.9	62.59
288.15 K, x1 = 0.05	981.27	47.85
288.15 K, x1 = 0.0999	–	40.32
288.15 K, x1 = 0.1	965.81	–
288.15 K, x1 = 0.15	950.41	35.72
288.15 K, x1 = 0.1999	–	33.71
288.15 K, x1 = 0.2	935.61	–
288.15 K, x1 = 0.2999	–	30.6
288.15 K, x1 = 0.3	907.7	–
288.15 K, x1 = 0.4	884.77	29.19
288.15 K, x1 = 0.4999	–	28.24
288.15 K, x1 = 0.5	863.71	–
288.15 K, x1 = 0.5999	–	27.29
288.15 K, x1 = 0.6	845.83	–
288.15 K, x1 = 0.6999	–	26.71
288.15 K, x1 = 0.7	830.7	–
288.15 K, x1 = 0.7999	–	25.78
288.15 K, x1 = 0.8	818.04	–
288.15 K, x1 = 0.8999	–	25.06
288.15 K, x1 = 0.9	805.86	–
288.15 K, x1 = 1	795.65	24.34
293.15 K, x1 = 0.0099	993.87	–
293.15 K, x1 = 0.05	979.34	–
293.15 K, x1 = 0.1	962.9	–
293.15 K, x1 = 0.15	946.79	–
293.15 K, x1 = 0.2	931.54	–
293.15 K, x1 = 0.3	903.09	–
293.15 K, x1 = 0.4	879.81	–
293.15 K, x1 = 0.5	858.56	–
293.15 K, x1 = 0.6	840.53	–
293.15 K, x1 = 0.7	825.3	–
293.15 K, x1 = 0.8	812.56	–
293.15 K, x1 = 0.9	800.27	–
293.15 K, x1 = 1	790.04	–
298.15 K, x1 = 0.0099	992.55	61.04
298.15 K, x1 = 0.05	977.21	46.14
298.15 K, x1 = 0.0999	–	39.07
298.15 K, x1 = 0.1	959.83	–
298.15 K, x1 = 0.15	943.05	34.41
298.15 K, x1 = 0.1999	–	32.21
298.15 K, x1 = 0.2	927.37	–
298.15 K, x1 = 0.2999	–	29.35
298.15 K, x1 = 0.3	898.35	–
298.15 K, x1 = 0.4	874.8	27.98
298.15 K, x1 = 0.4999	–	27.04
298.15 K, x1 = 0.5	853.35	–
298.15 K, x1 = 0.5999	–	26.03
298.15 K, x1 = 0.6	835.15	–
298.15 K, x1 = 0.6999	–	25.44
298.15 K, x1 = 0.7	819.8	–
298.15 K, x1 = 0.7999	–	24.51
298.15 K, x1 = 0.8	806.97	–
298.15 K, x1 = 0.8999	–	23.8
298.15 K, x1 = 0.9	794.6	–
298.15 K, x1 = 1	784.33	23.02
303.15 K, x1 = 0.0099	991	–
303.15 K, x1 = 0.05	974.89	–
303.15 K, x1 = 0.1	956.64	–
303.15 K, x1 = 0.15	939.23	–
303.15 K, x1 = 0.2	923.1	–
303.15 K, x1 = 0.3	893.54	–
303.15 K, x1 = 0.4	869.68	–
303.15 K, x1 = 0.5	848.07	–
303.15 K, x1 = 0.6	829.71	–
303.15 K, x1 = 0.7	814.25	–
303.15 K, x1 = 0.8	801.32	–
303.15 K, x1 = 0.9	788.88	–
303.15 K, x1 = 1	778.57	–
308.15 K, x1 = 0.0099	989.16	59.26
308.15 K, x1 = 0.05	972.41	44.78
308.15 K, x1 = 0.0999	–	37.88
308.15 K, x1 = 0.1	953.33	–
308.15 K, x1 = 0.15	935.32	33.13
308.15 K, x1 = 0.1999	–	30.74
308.15 K, x1 = 0.2	918.78	–
308.15 K, x1 = 0.2999	–	28.08
308.15 K, x1 = 0.3	888.68	–
308.15 K, x1 = 0.4	864.53	26.78
308.15 K, x1 = 0.4999	–	25.82
308.15 K, x1 = 0.5	842.72	–
308.15 K, x1 = 0.5999	–	24.81
308.15 K, x1 = 0.6	824.22	–
308.15 K, x1 = 0.6999	–	24.25
308.15 K, x1 = 0.7	808.63	–
308.15 K, x1 = 0.7999	–	23.2
308.15 K, x1 = 0.8	795.62	–
308.15 K, x1 = 0.8999	–	22.56
308.15 K, x1 = 0.9	783.11	–
308.15 K, x1 = 1	772.76	21.72
313.15 K, x1 = 0.0099	987.26	–
313.15 K, x1 = 0.05	969.77	–
313.15 K, x1 = 0.1	949.91	–
313.15 K, x1 = 0.15	931.31	–
313.15 K, x1 = 0.2	914.37	–
313.15 K, x1 = 0.3	883.75	–
313.15 K, x1 = 0.4	859.33	–
313.15 K, x1 = 0.5	837.31	–
313.15 K, x1 = 0.6	818.66	–
313.15 K, x1 = 0.7	802.96	–
313.15 K, x1 = 0.8	789.84	–
313.15 K, x1 = 0.9	777.29	–
313.15 K, x1 = 1	766.91	–
318.15 K, x1 = 0.0099	985.07	58.11
318.15 K, x1 = 0.05	966.73	43.74
318.15 K, x1 = 0.0999	–	36.87
318.15 K, x1 = 0.1	946.37	–
318.15 K, x1 = 0.15	927.21	32.02
318.15 K, x1 = 0.1999	–	29.4
318.15 K, x1 = 0.2	909.89	–
318.15 K, x1 = 0.2999	–	26.98
318.15 K, x1 = 0.3	878.76	–
318.15 K, x1 = 0.4	854.06	25.47
318.15 K, x1 = 0.4999	–	24.53
318.15 K, x1 = 0.5	831.85	–
318.15 K, x1 = 0.5999	–	23.63
318.15 K, x1 = 0.6	813.05	–
318.15 K, x1 = 0.6999	–	22.94
318.15 K, x1 = 0.7	797.22	–
318.15 K, x1 = 0.7999	–	22.02
318.15 K, x1 = 0.8	784.05	–
318.15 K, x1 = 0.8999	–	21.19
318.15 K, x1 = 0.9	771.4	–
318.15 K, x1 = 1	760.99	20.38
323.15 K, x1 = 0.0099	982.76	–
323.15 K, x1 = 0.05	963.1	–
323.15 K, x1 = 0.1	942.68	–
323.15 K, x1 = 0.15	923	–
323.15 K, x1 = 0.2	905.19	–
323.15 K, x1 = 0.3	873.7	–
323.15 K, x1 = 0.4	848.74	–
323.15 K, x1 = 0.5	826.32	–
323.15 K, x1 = 0.6	807.35	–
323.15 K, x1 = 0.7	791.42	–
323.15 K, x1 = 0.8	778.16	–
323.15 K, x1 = 0.9	765.46	–
323.15 K, x1 = 1	755.02	–
328.15 K, x1 = 0.0099	980.29	57.74
328.15 K, x1 = 0.05	959.94	42.86
328.15 K, x1 = 0.0999	–	35.71
328.15 K, x1 = 0.1	938.87	–
328.15 K, x1 = 0.15	918.72	30.76
328.15 K, x1 = 0.1999	–	28.31
328.15 K, x1 = 0.2	900.64	–
328.15 K, x1 = 0.2999	–	25.68
328.15 K, x1 = 0.3	868.56	–
328.15 K, x1 = 0.4	843.31	24.23
328.15 K, x1 = 0.4999	–	23.28
328.15 K, x1 = 0.5	820.73	–
328.15 K, x1 = 0.5999	–	22.26
328.15 K, x1 = 0.6	801.6	–
328.15 K, x1 = 0.6999	–	21.73
328.15 K, x1 = 0.7	785.55	–
328.15 K, x1 = 0.7999	–	20.9
328.15 K, x1 = 0.8	772.2	–
328.15 K, x1 = 0.8999	–	20.19
328.15 K, x1 = 0.9	759.81	–
328.15 K, x1 = 1	748.98	19.15
